Measurements published in patent US11725036B2, “Modified lipidated relaxin B chain peptides and their therapeutic use” (Sanofi, priority 2018, dated 2023).
≈ marks a conversion by molar mass, not a printed value. Like-named read-outs stand apart in the source and are kept apart here. Starred links: 1 amine or outer side, 2 acyl side, 3 side chain; linkers in the order of their positions; H or OH if unused. Non-standard residues stand in square brackets, D forms with d. Residues, ends and D or L forms follow the SMILES beside them. Groups on a side chain read outwards from the residue. *: point of attachment. X1 = CCCCCCCCCCCCCCCC(=O)N[C@@H](CCC(=O)N[C@@H](CCC(=O)N[C@@H](CCC(=O)NCCCOCCOCCOCCCNC(=O)CCC(=O)NCCCOCCOCCOCCCNC(=O)CCC(=O)NCCCOCCOCCOCCCN*)C(=O)O)C(=O)O)C(=O)O; γGlu = O=C(O)[C@H](CCC(=O)[*:2])N[*:1]; Stearoyl = CCCCCCCCCCCCCCCCCC(=O)*; Suc = O=C(CCC(=O)[*:2])[*:1]; αMeK = C[C@](N)(CCCCN)C(=O)O; AEEA = NCCOCCOCC(=O)O; Aib = CC(C)(N)C(=O)O

What was measured:
RXFP1 = biological target: T1, RXFP1 (Homo sapiens, UniProt Q9HBX9); test: OVCAR5 cAMP assay (HTRF); format: cell-based; settings: for EC50: OVCAR 5 cells expressing endogenous RXFP1, cAMP readout; for Emax: OVCAR 5 cells, maximal cAMP relative to H2-relaxin
T1 construct: OVCAR5 cells expressing endogenous RXFP1; endogenous in cells; host or cells: OVCAR5
T1 sequence (Q9HBX9 1-757): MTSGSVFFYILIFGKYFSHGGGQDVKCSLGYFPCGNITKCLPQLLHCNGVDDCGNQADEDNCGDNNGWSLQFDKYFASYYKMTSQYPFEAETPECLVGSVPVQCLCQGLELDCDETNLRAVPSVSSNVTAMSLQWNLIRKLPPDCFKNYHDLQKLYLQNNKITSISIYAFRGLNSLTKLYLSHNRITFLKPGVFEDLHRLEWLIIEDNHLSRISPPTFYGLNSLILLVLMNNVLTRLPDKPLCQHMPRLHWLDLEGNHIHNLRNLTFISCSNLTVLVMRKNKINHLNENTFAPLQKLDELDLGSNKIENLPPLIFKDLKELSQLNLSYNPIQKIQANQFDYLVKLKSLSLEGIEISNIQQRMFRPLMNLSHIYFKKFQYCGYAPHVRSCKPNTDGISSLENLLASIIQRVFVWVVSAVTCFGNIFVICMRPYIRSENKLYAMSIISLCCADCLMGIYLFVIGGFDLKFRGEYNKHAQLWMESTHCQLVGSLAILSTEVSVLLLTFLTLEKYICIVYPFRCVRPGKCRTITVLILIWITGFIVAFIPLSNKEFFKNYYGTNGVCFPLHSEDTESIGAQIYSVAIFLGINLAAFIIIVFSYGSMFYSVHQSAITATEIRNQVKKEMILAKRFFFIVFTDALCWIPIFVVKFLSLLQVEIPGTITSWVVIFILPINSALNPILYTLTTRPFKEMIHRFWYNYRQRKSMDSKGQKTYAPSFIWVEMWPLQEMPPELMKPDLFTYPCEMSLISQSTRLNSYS
Procedure, shortened: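 Endogenous RXFP1 in OVCAR5 cells, pretreated 40 min at 37° C with 1 mM IBMX, then exposed to increasing peptide concentrations in serum-free medium for 30 min at 37° C. cAMP read by HTRF; EC50 by variable-slope sigmoidal fit, Emax as % of H2-relaxin maximal cAMP in same run.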

in vivo = test: in vivo; design: species or system Sprague Dawley rats; settings: rat
Protocol: Prior to the testing of a peptide batch, its purity (HPLC-UV) was determined. Dose was corrected for presence of salts, solvent and purity. Bioanalytical screening method for quantification of peptides in rat: Sprague Dawley rats were dosed with study peptide at a dose of 1 mg/kg intravenously (i.v.) or 3 mg/kg subcutaneously (s.c.) as a solution in PBS (0.2 mg/ml and 0.6 mg/ml respectively). Blood samples were collected after: 0.083, 0.25, 0.5, 1, 2, 4, 8, 24, 48 and 72 h (i.v. route) and 0.25, 0.5, 1, 2, 4, 6, 8, 10, 24, 48 and 72 h (s.c route) post application. Plasma samples were analyzed after protein precipitation via liquid chromatography mass spectrometry (LC/MS). PK parameters and half-life were calculated using Phoenix 64 (WinNonlin 6.4)-Pharsight (Certara™) (non-compartment model). Values below the limit of quantification (BLQ) were replaced by zero for subsequent calculations and PK analysis. T½: in-vivo half-life, time required for test compound plasma concentration to be divided by two during the PK experiment. C0: Extrapolated test compound plasma concentration at t=0 time point (i.v. route). Cmax: maximal test compound plasma concentration at the indicated time point (s.c. route). Tmax: Time point where Cmax was attained. F %: s.c. vs i.v. bioavailability, dose-corrected area under curve (AUC) s.c. route divided by AUC i.v.

[1] = Solubility testing in buffer; format: physicochemical; settings: target solubility 10.0 mg/ml
[2] = Stability in human plasma; format: in vitro ADME; settings: T = 0, 37° C., 5 μM
Protocol: (§1) Prior to the testing of stability in plasma (or blood) of a peptide batch, its purity (HPLC-UV) was determined.
(§2) Rat and Human plasma: anti-coagulant sodium or lithium heparin.
(§3) 100 μM solution of study compound in 50 mM phosphate buffer pH 7.4.
(§4) 950 μL plasma (or blood) was pre-incubated for 5 min at 37° C. 50 μL of compound stock solution was added. Final compound concentration=5 μM. Vortex and transfer 150 μL plasma (or blood) into an Eppendorf for each time point. The time points […] were carried out in duplicate for each species.
(§5) After incubation, 150 μL plasma (or blood) was extracted with 600 μL Acetonitrile containing 1% TFA. Said mixture was then vortexed and centrifuged 10 min at 14600 rpm. 200 μL supernatant was dried under N2. Sample was then reconstituted in 200 μL of H2O/CH3CN 98/2+0.1% FA+50 ng/ml Labetalol and analyzed using the analytical system used in solubility and stability studies.
(§6) For determination of the amount of the remaining peptide, the peak areas of the target compound at t0 and each time point […] were compared, resulting in “% remaining peptide”, following the equation: % remaining peptide=[(peak area peptide time)×100]/peak area peptide t0. The stability was expressed as “% remaining peptide”.

Stability in rat plasma = format: in vitro ADME; settings: T = 0, 37° C., 5 μM
Protocol: as §1, §2, §3, §4, §5, §6

[3] = acetate buffer 50 mM pH 4.5, read-out: Solubility Acetate buffer pH 4.5
[4] = phosphate buffer 50 mM pH 7.4, read-out: Solubility phosphate buffer pH 7.4

| Compound | EC50 (RXFP1) [nM] | Emax (RXFP1) [%] | solubility [1, 3] [µg/mL] | solubility [1, 4] [µg/mL] | Human Plasma stability % remaining [2] [%] | Rat plasma stability % remaining (Stability in rat plasma) [%] | further results |
| --- | --- | --- | --- | --- | --- | --- | --- |
| CCCCCCCCCCCCCCCC(=O)N[C@@H](CCC(=O)N[C@@H](CCC(=O)N[C@@H](CCC(=O)NCCCOCCOCCOCCCNC(=O)CCC(=O)NCCCOCCOCCOCCCNC(=O)CCC(=O)NCCCOCCOCCOCCCNC(=O)CCC(=O)NCCCC[C@H](NC(=O)CNC(=O)[C@H](CCC(=O)O)NC(=O)C(C)(C)NC(=O)C(C)(C)NC(=O)[C@@H](NC(=O)[C@H](CCCCNC(C)=O)NC(=O)[C@H](C)NC(=O)[C@H](CCCNC(=N)N)NC(=O)[C@@H](NC(=O)[C@H](CCCNC(=N)N)NC(=O)[C@H](CCC(=O)O)NC(=O)[C@H](CCCNC(=N)N)NC(=O)CNC(=O)[C@H](CCC(=O)O)NC(=O)[C@H](CC(C)C)NC(C)=O)C(C)C)[C@@H](C)CC)C(=O)N[C@@H](CO)C(=O)N[C@H](C(=O)N[C@@H](Cc1c[nH]c2ccccc12)C(=O)N[C@@H](CO)C(=O)NC(C)(C)C(=O)N[C@@H](CCCNC(=N)N)C(=O)N[C@@H](CCCNC(=N)N)C(=O)N[C@@H](CCCCNC(C)=O)C(N)=O)[C@@H](C)O)C(=O)O)C(=O)O)C(=O)O [compound 55] (Ac-LEGRERVRAK(Ac)I[Aib][Aib]EGK([Suc-X1])STWS[Aib]RRK(Ac)-NH2) | 0.18 | 93 | 9260 (≈ 2080 µM) | 8840 (≈ 1980 µM) |  |  | C0 (in vivo; Sprague Dawley, iv, 1 mg/kg): 4910 nM; half-life (in vivo; Sprague Dawley, iv, 1 mg/kg): 4.89 h; bioavailability (in vivo; Sprague Dawley, sc): 65%; Cmax (in vivo; Sprague Dawley, sc, 3 mg/kg): 2070 nM; Tmax (in vivo; Sprague Dawley, sc, 3 mg/kg): 6 h |
| Ac-VIKLSGRELVRAQIAISGMSTWSKRSL-NH2 [AcB7-33 C11.23S, reference compound] |  |  |  |  | 100 | 100 |  |
| H2-Relaxin: 6-kDa peptidic hormone of 53 amino acids; A chain (SEQ ID NO: 100) and B chain (SEQ ID NO: 101) cross-linked by disulfide bonds |  |  |  |  |  |  | C0 (in vivo; iv, 1 mg/kg): 870 nM; T½ (h), in-vivo half-life (in vivo; iv, 1 mg/kg): 0.46 h |
| CCCCCCCCCCCCCCCC(=O)N[C@@H](CCC(=O)N[C@@H](CCC(=O)N[C@@H](CCC(=O)NCCCOCCOCCOCCCNC(=O)CCC(=O)NCCCOCCOCCOCCCNC(=O)CCC(=O)NCCCOCCOCCOCCCNC(=O)CCC(=O)NCCCC[C@H](NC(=O)CNC(=O)[C@H](CCC(=O)O)NC(=O)C(C)(C)NC(=O)C(C)(C)NC(=O)[C@@H](NC(=O)[C@H](CCCCNC(C)=O)NC(=O)[C@H](C)NC(=O)[C@H](CCCNC(=N)N)NC(=O)[C@@H](NC(=O)[C@H](Cc1ccccc1)NC(=O)[C@H](CCC(=O)O)NC(=O)[C@H](CCCNC(=N)N)NC(=O)CNC(=O)[C@H](CCC(=O)O)NC(=O)[C@H](CC(C)C)NC(C)=O)C(C)C)[C@@H](C)CC)C(=O)N[C@@H](CO)C(=O)N[C@H](C(=O)N[C@@H](Cc1ccccc1)C(=O)N[C@@H](CO)C(=O)N[C@@](C)(CCCCN)C(=O)N[C@@H](CCCNC(=N)N)C(=O)N[C@@H](C)C(=O)N[C@@H](CCCCNC(C)=O)C(N)=O)[C@@H](C)O)C(=O)O)C(=O)O)C(=O)O [compound 24] (Ac-LEGREFVRAK(Ac)I[Aib][Aib]EGK([Suc-X1])STFS[αMeK]RAK(Ac)-NH2) | 36.4 | 100 | 280 (≈ 63.9 µM) | 6930 (≈ 1580 µM) |  |  |  |
| Ac-VIKLSGRELVRAQIAISGMSTWSKKKK-NH2 [KKKK(AcB7-29 C11.23S), reference compound] |  |  |  |  | 100 | 100 |  |
| CCCCCCCCCCCCCCCCCC(=O)N[C@@H](CCC(=O)N[C@@H](CCC(=O)N[C@@H](CCC(=O)NCCOCCOCC(=O)NCCOCCOCC(=O)NCCOCCOCC(=O)NCCOCCOCC(=O)NCCCC[C@H](NC(=O)CNC(=O)[C@H](CCC(=O)O)NC(=O)C(C)(C)NC(=O)C(C)(C)NC(=O)[C@@H](NC(=O)[C@H](CCCCNC(C)=O)NC(=O)[C@H](C)NC(=O)[C@H](CCCNC(=N)N)NC(=O)[C@@H](NC(=O)[C@H](CCCCN)NC(=O)[C@H](CCC(=O)O)NC(=O)[C@H](CCCNC(=N)N)NC(=O)CNC(=O)[C@H](CCC(=O)O)NC(=O)[C@H](CC(C)C)NC(C)=O)C(C)C)[C@@H](C)CC)C(=O)N[C@@H](CO)C(=O)N[C@H](C(=O)N[C@@H](Cc1ccccc1)C(=O)N[C@@H](CO)C(=O)N[C@@](C)(CCCCN)C(=O)N[C@@H](CCCNC(=N)N)C(=O)N[C@@H](C)C(=O)N[C@@H](CCCCNC(C)=O)C(N)=O)[C@@H](C)O)C(=O)O)C(=O)O)C(=O)O [compound 26] (Ac-LEGREKVRAK(Ac)I[Aib][Aib]EGK([AEEA-AEEA-AEEA-AEEA-γGlu-γGlu-γGlu-Stearoyl])STFS[αMeK]RAK(Ac)-NH2) | 0.43 | 96 | 6680 (≈ 1640 µM) | 6760 (≈ 1660 µM) |  |  |  |
| CCCCCCCCCCCCCCCC(=O)N[C@@H](CCC(=O)N[C@@H](CCC(=O)N[C@@H](CCC(=O)NCCCOCCOCCOCCCNC(=O)CCC(=O)NCCCOCCOCCOCCCNC(=O)CCC(=O)NCCCOCCOCCOCCCNC(=O)CCC(=O)NCCCC[C@H](NC(=O)CNC(=O)[C@H](CCC(=O)O)NC(=O)C(C)(C)NC(=O)C(C)(C)NC(=O)[C@@H](NC(=O)[C@H](CCCCNC(C)=O)NC(=O)[C@H](C)NC(=O)[C@H](CCCNC(=N)N)NC(=O)[C@@H](NC(=O)[C@H](CCCCN)NC(=O)[C@H](CCC(=O)O)NC(=O)[C@H](CCCNC(=N)N)NC(=O)CNC(=O)[C@H](CCC(=O)O)NC(=O)[C@H](CC(C)C)NC(C)=O)C(C)C)[C@@H](C)CC)C(=O)N[C@@H](CO)C(=O)N[C@H](C(=O)N[C@@H](Cc1c[nH]c2ccccc12)C(=O)N[C@@H](CO)C(=O)NC(C)(C)C(=O)N[C@@H](CCCNC(=N)N)C(=O)N[C@@H](C)C(=O)N[C@@H](CCCCN)C(N)=O)[C@@H](C)O)C(=O)O)C(=O)O)C(=O)O [compound 71] (Ac-LEGREKVRAK(Ac)I[Aib][Aib]EGK([Suc-X1])STWS[Aib]RAK-NH2) | 0.36 | 95 | 8280 (≈ 1930 µM) | 8770 (≈ 2040 µM) |  |  |  |
| H-VIKLSGRELVRAQIAISGMSTWSKRSL-NH2 [B7-33 C11.23S, reference compound] |  |  |  |  | 100 | 100 |  |
